Assay [1] addresses Transcriptional enhancer factor TEF-3 (Homo sapiens, UniProt Q15561). The experiment in a line: Inhibition of GST-tagged recombinant TEAD4 (unknown origin) (217 to 434 residues) expressed in Escherichia coli BL21 (DE3) by fluorescence polarization assay. For orientation: In fluorescence polarisation assays a small probe gives low polarisation when free and higher when bound to something large.

The nature of assay [2]: Binding affinity to rat heart mitochondria CPT1 assessed as inhibition constant incubated for 3 to 6 mins by Liquid scintillation counting method.

Transcriptional enhancer factor TEF-3, sequence (Q15561 whole entry, the tested form may be a part): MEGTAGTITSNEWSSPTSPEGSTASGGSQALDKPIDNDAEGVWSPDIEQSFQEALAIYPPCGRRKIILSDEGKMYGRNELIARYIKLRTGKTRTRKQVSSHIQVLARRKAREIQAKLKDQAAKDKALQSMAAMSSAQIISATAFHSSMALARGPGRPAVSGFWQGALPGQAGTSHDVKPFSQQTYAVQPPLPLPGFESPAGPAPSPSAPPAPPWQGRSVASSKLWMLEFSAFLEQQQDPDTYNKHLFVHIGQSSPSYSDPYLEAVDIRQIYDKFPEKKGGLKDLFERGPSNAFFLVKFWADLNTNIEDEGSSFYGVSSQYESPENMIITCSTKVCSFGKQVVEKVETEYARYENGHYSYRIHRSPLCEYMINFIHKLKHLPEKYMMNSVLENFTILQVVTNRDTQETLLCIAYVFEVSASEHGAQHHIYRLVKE

Take `O=C(CCl)c1ccccc1Nc1cccc(C(F)(F)F)c1`: in assay [1], the EC50 stood at 5.9 µM.
Consider `CCCCCCCCCCCCCCC[C@]1(O)C[C@H](CC(=O)[O-])C[N+](C)(C)C1`, for which, in assay [2], the Ki turned out to be 2.8 µM.

As usually defined, the EC50 is the concentration giving half of the maximal effect. The Ki is a dissociation constant, usually derived from enzyme kinetics or from competition with a known ligand.

The values above are taken from BindingDB's records for PubMed 38621327 (Hebei University).
